Measurements: patent US3980794A, “Method for promoting growth of poultry with 3-(5-nitro-2-imidazolyl)pyrazoles” (Eli Lilly and Company, priority 1975, dated 1976)
Values after ≈ are worked out from the molar mass of the structure shown. Like-named read-outs stand apart in the source and are kept apart here.

Key:
Pasteurella multocida = assay: Efficacy against Pasteurella multocida infections in mice when administered by injection (Experiment 1); type: in vivo, Swiss mice; details: ip; for responders at 2.5 mg/kg: 2.5 mg./kg. i.p.; for responders at 5 mg/kg: 5.0 mg./kg. i.p.; for responders at 7.5 mg/kg: 7.5 mg./kg. i.p.
Method: The efficacy of the novel compounds against Pasteurella multocida infections in mice when administered by injection was studied.
Female Swiss mice weighing from 15 to about 20 g. were used. The test compound, 5.0 mg., was weighed out and dissolved in 0.5 ml. of dimethyl sulfoxide, and this solution was added to 9.5 ml. of sodium carboxymethylcellulose suspension. Groups of five mice each were injected intraperitoneally with 0.1 ml. each of the above-prepared test composition. This preparation gave a test rate of 2.5 mg. per kilo of body weight of mouse. The compounds were tested at 2.5, 5.0, or 7.5 mg. per kilo of body weight of mouse, and the test preparations for rates of 5.0 and 7.5 mg./kg. were prepared in a similar manner. Immediately after receiving the test compound, the mice were challenged using log10 dilutions of 10^-^4, 10^-^5, 10^-^6, and 10^-^7 of a 16 to 20-hour tryptose broth culture of Pasteurella multocida at 0.1 ml. per mouse subcutaneously. Similar groups of nontreated control mice were also challenged, the challenge being administered subcutaneously. The groups of mice were observed daily for mortality and the total mortality in treated groups compared with that which occurred in the nonmedicated control groups. Each test compound is identified by the number of the example describing its preparation.
In the chart, column 1 lists the test compound; column 2, the dosage of test compound in mg./kg. of mouse body weight; column 3, the dilution of the challenge organism; and column 4, the ratio of the number of mice surviving the test at each dosage and challenge dilution to the number of mice tested at each dosage and challenge dilution, called the survival ratio.

Salmonella typhimurium = assay: Control of infections caused by Salmonella typhimurium in chickens, subcutaneous (Experiment 2); type: in vivo; details: Salmonella enterica, sc, 144 h, 6 days, read-out: Survival Ratio (converted); for responders at 7.5 mg/kg: 7.5 mg./kg. subcutaneous; for responders at 15 mg/kg: 15 mg./kg. subcutaneous; for responders at 30 mg/kg: 30 mg./kg. subcutaneous; for responders at 60 mg/kg: 60 mg./kg. subcutaneous
Method: The efficacy of the novel compounds in the control of infections caused by Salmonella typhimurium in chickens was evaluated in the following manner.
The test was carried out using day-old chicks weighing approximately 35 g. each. The chicks were divided into groups of 5 chicks per each dosage level. A portion of the chicks received the test compound which was suspended in 0.2 ml. of polyethylene glycol 200 and administered subcutanusly in the neck. […] All the chicks were challenged with a 1:200 dilution of a culture of the organism, 0.1 ml. of the dilution being injected into each chick in the leg intramuscularly. […] The test compounds are identified in the same manner as set forth in Experiment 1.
In the chart, column 1 lists the compounds tested; column 2, the dosage of test compound in mg./kg.; and column 3, the survival ratio.

[1] = test system: Peptostreptococcus intermedius 1264; assay: Susceptibility of anaerobic bacteria, agar dilution; type: cell-based; details: Peptostreptococcus, 1264, 24 h, read-out: 24 Hr. Minimum Inhibitory Concentration
[2] = test system: Clostridium perfringens 81; assay: microbe, parasite or virus in culture; type: cell-based; details: Clostridium perfringens, 81, 24 h, read-out: 24 Hr. Minimum Inhibitory Concentration
Actinomyces bovis 13684 = assay: Susceptibility of anaerobic bacteria, agar dilution; type: cell-based; details: 24 h; Actinomyces bovis 13684; read-out: 24 Hr. Minimum Inhibitory Concentration
[3] = test system: Propionibacterium acnes 44; assay: as above; type: cell-based; details: Cutibacterium acnes, 44, 24 h, read-out: 24 Hr. Minimum Inhibitory Concentration
[4] = test system: Peptococcus anaerobius 1428; assay: as above; type: cell-based; details: 24 h, read-out: 24 Hr. Minimum Inhibitory Concentration
[5] = test system: Clostridium innocuum 1373; assay: as above; type: cell-based; details: 24 h; Clostridium innocuum 1373; read-out: 24 Hr. Minimum Inhibitory Concentration
[6] = test system: Bacteroides fragilis sp. fragilis 1877; assay: as above; type: cell-based; details: Bacteroides fragilis, 24 h, read-out: 24 Hr. Minimum Inhibitory Concentration
[7] = test system: Bacteroides fragilis sp. vulgatus 1563; assay: as above; type: cell-based; details: Bacteroides fragilis, 24 h, read-out: 24 Hr. Minimum Inhibitory Concentration
[8] = test system: Propionibacterium acnes 79; assay: as above; type: cell-based; details: Cutibacterium acnes, 79, 24 h, read-out: 24 Hr. Minimum Inhibitory Concentration
[9] = test system: Fusobacterium necrophorum 13859; assay: as above; type: cell-based; details: Fusobacterium necrophorum, 13859, 24 h, read-out: 24 Hr. Minimum Inhibitory Concentration
[10] = test system: Fusobacterium symbiosum 1470; assay: as above; type: cell-based; details: Fusobacterium, 1470, 24 h, read-out: 24 Hr. Minimum Inhibitory Concentration
[11] = test system: Clostridium septicum 1128; assay: as above; type: cell-based; details: 24 h, read-out: 24 Hr. Minimum Inhibitory Concentration
Method: (§1) The susceptibility of anaerobic bacteria, both gram positive and gram negative, to a representative number of the novel compounds of this application was determined using the agar dilution method. The bacteria used were isolated from patients hospitalized at the Indiana University Medical Center. The isolates were identified in the anaerobe laboratory of the Medical Center by the criteria established by Dowell et al., Laboratory Methods in Anaerobic Bacteriology. Public Health Serv. Publ. No. 1803 (1968) [Center for Disease Control, Atlanta, Ga.]; and by Smith et al., The Pathogenic Anaerobic Bacteria, pages 96-136 (1968) [Charles C. Thomas, Publisher, Springfield, Ill.]. All the organisms were maintained in chopped meat glucose medium (Scott Labs) at room temperature.
(§2) The method used for the agar dilution tests was based on the studies of Sutter et al., Antimicrob. Ag. Chemother. 3, 188-193 (1973). The strains of anaerobic bacteria were grown in 16 × 120 mm. tubes for 16 to 18 hours in Thioglycolate medium without indicator--135C (Becton, Dickinson and Co.), to which was added 5 mcg. of hemin per milliliter prior to autoclaving, plus 1 mg. of sodium bicarbonate and 0.1 mcg. of filter-sterilized menadione per milliliter after autoclaving. The growth tubes for the bacteria Veillonella alcalescens were additionally supplemented with 5 mg. of sodium lactate per milliliter. The strains were adjusted to the turbidity of the No. 1 McFarland standard in Thioglycolate medium without indicator--135C containing an additional 0.13 percent Bacto-agar (Difco). Each strain was then applied to the surface of the petri plate (100 mm. × 15 mm.) by means of a replicator.
(§3) For the agar dilution studies, two-fold dilutions of the test compounds were prepared in deionized water to which was then added laked sheep blood and filter-sterilized menadione so the concentrations after the agar dilution were 5 percent and 10 mcg./ml. respectively. An equal volume of double strength Brucella agar (Becton, Dickinson and Co.) was mixed with each dilution in a water bath held at 50°C. and then poured onto the petri plates.
(§4) All of the procedures were done inside a plastic glove box, except for the incubation of the growth tubes and the pouring of the plates. After the plates hardened, they were put inside the glove box for a minimum of two hours before they were inoculated. Generally, the glove box procedures of Aranki et al., Applied Microbiology 17, 568-576 (1969), were followed, but the following modifications were used. Dry materials were introduced into the glove box by evacuating the lock to 28 inches of mercury and filling once with nitrogen gas, followed by evacuating in the same manner and filling with an 80 percent nitrogen plus 10 percent CO2 plus 10 percent hydrogen gas mixture. Liquid media and agar plates were introduced into the glove box by evacuating the lock to 10 inches of mercury and filling with gas four times. The nitrogen gas was used to fill the lock for the first two cycles of evacuation, with the gas mixture described above used for the final two fillings.
(§5) All the plates were incubated at 37°C. in Gas Pak jars (Becton, Dickinson and Co.) containing palladium-coated alumina catalysts (reactivated after each use). The results of the agar dilution tests were read after about 24 hours of incubation. The minimum inhibitory concentration (MIC) was recorded as the lowest concentration of test compound at which there was no growth.
(§6) The results of these in vitro tests are recorded in Charts 11 and 12 which follow. The test compounds are identified in the same manner as in the previous experiments. The antibiotics cephalothin and erythromycin were also run simultaneously with the novel compounds of this application, for comparison purposes, and the results are included in Charts 11 and 12 below.

[12] = test system: Clostridium septicum bovine; assay: as above; type: cell-based; details: 24 h, read-out: 24 Hr. Minimum Inhibitory Concentration
Method: as §1, §2, §3, §4, §5, §6

[13] = test system: Eubacterium aerofaciens 1235; assay: as above; type: cell-based; details: Collinsella aerofaciens, 1235, 24 h, read-out: 24 Hr. Minimum Inhibitory Concentration
[14] = test system: Bacteroides fragilis sp. thetaiotaomicron 1438; assay: as above; type: cell-based; details: Bacteroides fragilis, 24 h, read-out: 24 Hr. Minimum Inhibitory Concentration
[15] = test system: Bacteroides fragilis sp. fragilis 1936B; assay: as above; type: cell-based; details: Bacteroides fragilis, 24 h, read-out: 24 Hr. Minimum Inhibitory Concentration
Clostridium ramosum 1313 = assay: as above; type: cell-based; details: Thomasclavelia ramosa, 24 h; Clostridium ramosum 1313; read-out: 24 Hr. Minimum Inhibitory Concentration
[16] = test system: Veillonella alcalescens 1; assay: as above; type: cell-based; details: Veillonella parvula, 24 h; Veillonella alcalescens 1; read-out: 24 Hr. Minimum Inhibitory Concentration
[17] = test system: Bacteroides fragilis sp. vulgatus 1211; assay: as above; type: cell-based; details: Bacteroides fragilis, 24 h, read-out: 24 Hr. Minimum Inhibitory Concentration
[18] = challenge dilution 10^-^4, read-out: Survival Ratio (converted)
[19] = challenge dilution 10^-^5, read-out: Survival Ratio (converted)
[20] = challenge dilution 10^-^6, read-out: Survival Ratio (converted)

CC(C)COC=Nc1c(C#N)c(-c2ncc([N+](=O)[O-])n2C)nn1C [Compound 13C, Isobutyl N-[4-cyano-1-methyl-3-(1-methyl-5-nitro-2-imidazolyl)pyrazol-5-yl]formimidate]
responders at 2.5 mg/kg (Pasteurella multocida; [18]): 40%
responders at 2.5 mg/kg (Pasteurella multocida; [19]): 30%
responders at 2.5 mg/kg (Pasteurella multocida; [20]): 70%
responders at 5 mg/kg (Pasteurella multocida; [18]): 40%
responders at 5 mg/kg (Pasteurella multocida; [19]): 80%
responders at 5 mg/kg (Pasteurella multocida; [20]): 90%
responders at 7.5 mg/kg (Pasteurella multocida; challenge dilution 10^-^4, read-out: Survival Ratio): 80%
responders at 7.5 mg/kg (Pasteurella multocida; challenge dilution 10^-^5, read-out: Survival Ratio): 100%
responders at 7.5 mg/kg (Pasteurella multocida; challenge dilution 10^-^6, read-out: Survival Ratio): 100%
responders at 7.5 mg/kg (Salmonella typhimurium): 0%
responders at 15 mg/kg (Salmonella typhimurium): 46.7%
responders at 30 mg/kg (Salmonella typhimurium): 53.3%
responders at 60 mg/kg (Salmonella typhimurium): 66.7%

CC(=O)OCC1=C(C(=O)O)N2C(=O)[C@@H](NC(=O)Cc3cccs3)[C@H]2SC1 [Cephalothin, cephalothin, reference compound]
MIC [1]: 1 µg/mL (≈ 2.52 µM)
MIC [2]: 2 µg/mL (≈ 5.04 µM)
MIC (Actinomyces bovis 13684): 2 µg/mL (≈ 5.04 µM)
MIC [3]: 2 µg/mL (≈ 5.04 µM)
MIC [4]: 2 µg/mL (≈ 5.04 µM)
MIC [5]: 8 µg/mL (≈ 20.2 µM)
MIC [6]: > 128 µg/mL
MIC [7]: 8 µg/mL (≈ 20.2 µM)
MIC [8]: 1 µg/mL (≈ 2.52 µM)
MIC [9]: < 0.5 µg/mL
MIC [10]: 64 µg/mL (≈ 161 µM)
MIC [11]: 1 µg/mL (≈ 2.52 µM)
MIC [12]: 4 µg/mL (≈ 10.1 µM)
MIC [13]: 2 µg/mL (≈ 5.04 µM)
MIC [14]: 64 µg/mL (≈ 161 µM)
MIC [15]: > 128 µg/mL
MIC (Clostridium ramosum 1313): 8 µg/mL (≈ 20.2 µM)
MIC [16]: < 0.5 µg/mL
MIC [17]: 4 µg/mL (≈ 10.1 µM)

CC(=O)N(C(C)=O)c1c(C#N)c(-c2ncc([N+](=O)[O-])n2C)nn1C [Compound 5, N-[4-Cyano-1-methyl-3-(1-methyl-5-nitro-2-imidazolyl)pyrazol-5-yl]diacetamide]
responders at 2.5 mg/kg (Pasteurella multocida; [18]): 100%
responders at 2.5 mg/kg (Pasteurella multocida; [19]): 90%
responders at 2.5 mg/kg (Pasteurella multocida; [20]): 100%
responders at 7.5 mg/kg (Salmonella typhimurium): 0%
responders at 15 mg/kg (Salmonella typhimurium): 0%
responders at 30 mg/kg (Salmonella typhimurium): 40%
responders at 60 mg/kg (Salmonella typhimurium): 45%

Cn1nc(-c2ncc([N+](=O)[O-])n2C)c(C#N)c1N=COCCCl [Compound 13B, 2-Chloroethyl N-[4-cyano-1-methyl-3-(1-methyl-5-nitro-2-imidazolyl)pyrazol-5-yl]formimidate]
responders at 5 mg/kg (Pasteurella multocida; [18]): 90%
responders at 5 mg/kg (Pasteurella multocida; [19]): 70%
responders at 5 mg/kg (Pasteurella multocida; [20]): 80%
responders at 7.5 mg/kg (Salmonella typhimurium): 10%
responders at 15 mg/kg (Salmonella typhimurium): 65%
responders at 30 mg/kg (Salmonella typhimurium): 50%
responders at 60 mg/kg (Salmonella typhimurium): 70%

CCOC(C)=Nc1c(C#N)c(-c2ncc([N+](=O)[O-])n2C)nn1C [Compound 13, Ethyl N-[4-cyano-1-methyl-3-(1-methyl-5-nitro-2-imidazolyl)pyrazol-5-yl]acetimidate]
responders at 7.5 mg/kg (Salmonella typhimurium): 53.3%
responders at 15 mg/kg (Salmonella typhimurium): 40%
responders at 30 mg/kg (Salmonella typhimurium): 55%
responders at 60 mg/kg (Salmonella typhimurium): 65%
